≈ marks a conversion by molar mass, not a printed value. Where a name gives a salt, the structure may show the parent alone. Read-outs that look alike come from different tables or passages of the source. Values belong to the compound of their own block, whether it stands above or below them.
Legend:
[1] = Caco-2 (TC7) A-B Permeability test (pH 6.5/7.4); settings: A-B Permeability (TC7, pH 6.5/7.4), test concentration 1.0E−05 M
[2] = Caco-2, pH 6.5
TRKA = TRKA (Homo sapiens, UniProt P04629); assay: TRKA kinase assay; type: biochemical; set-up: 6×His- or GST-tagged kinase domain fragments of the corresponding RTKs expressed in baculovirus system; host or cells: baculovirus system; settings: Table 3A; read-out: Cell Free IC50 TRKA
TRKA, sequence (P04629 510-781 limits assumed): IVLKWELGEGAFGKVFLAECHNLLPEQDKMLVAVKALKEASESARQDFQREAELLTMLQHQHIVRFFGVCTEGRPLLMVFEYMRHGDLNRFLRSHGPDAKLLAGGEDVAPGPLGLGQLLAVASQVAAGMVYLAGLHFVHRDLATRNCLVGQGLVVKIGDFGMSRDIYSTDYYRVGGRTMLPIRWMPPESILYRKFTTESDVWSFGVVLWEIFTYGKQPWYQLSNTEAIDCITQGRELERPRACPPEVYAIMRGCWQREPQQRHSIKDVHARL

Karpas299 = assay: Cell proliferation inhibition, ALCL line Karpas299; type: cell-based; settings: Homo sapiens, KARPAS-299; Table 3A; read-out: Cellular IC50 K-299
From the text: The IL-3-dependent lymphoid cell line BaF3 or BaF3 rendered IL-3-independent by engineered expression of NPM-ALK were used in parallel to test each candidate inhibitor. Control wells contained DMSO solvent without test compound. Specific inhibition of ALK signaling is indicated in the assay by impairment of NPM-ALK-expressing BaF3 cell growth without alterations in the growth of parental BaF3. This colorimetric assay of cell proliferation and viability is based upon reduction of the yellow monotetrazolium salt XTT to a water-soluble orange formazan dye, a reaction catalyzed by mitochondrial dehydrogenases in living cells only (Cell Proliferation Kit II, Cat. #1 465 015, Roche Biochemicals). In addition to testing compounds for their ability to impair the growth of BaF3 cells engineered to express NPM-ALK, the NPM-ALK-positive human lymphoma cell line Karpas-299 (Deutsche Sammlung von Mikroorganismen and Zellkulturen GmbH (DSMZ) no. ACC 31), the human BCR-ABL-positive chronic myeloid leukemia cell line K562 (American Type Culture Collection (ATCC) no. CCL-243), and the human T-cell leukemia line Jurkat (DSMZ no. ACC 282) were tested in these assays.
Each compound stock in 100% DMSO was first diluted using 8% DMSO/culture medium to produce a working stock of 250 μM compound. This working stock was then used to perform serial 1:1 dilutions (i.e., 125 μM, 62.5 μM, 31.25 μM, 15.625 μM, 7.8125 μM, and 3.90625 μM) using DMSO-free culture medium. Twenty (20) μL of each of these dilutions was then added to the cells (2×10^4 cells in 80 μL culture medium per 96-well) to obtain the final test compound concentrations (i.e., 25 μM, 12.5 μM, 6.25 μM, 3.125 μM, 1.5625 μM, and 0.78125 μM).
(§1) Cell proliferation inhibition assays were run for compound (II) with the five target NPM-ALK-dependent ALCL cell lines (Karpas 299, SuDHL-1, JB6, SupM2, UConn) and 12 unrelated cell lines (HEK293, CHO-K1, MCF7, HepG2, H292, H520, H1581, H596, H522, CHA-GO-K1, UMC-11, SK-MES1). […] The pronounced target cell-killing effect is also observed (molecular mechanisms to be determined).

IRK = target: T1, IRK (Homo sapiens, UniProt P06213); assay: IRK (insulin receptor kinase) assay; type: biochemical; settings: Table 3A; read-out: Cell Free IC50 IRK
T1 construct: 6×His- or GST-tagged kinase domain fragments of the corresponding RTKs expressed in baculovirus system; host or cells: baculovirus system
T1 sequence (P06213 1023-1298 limits assumed): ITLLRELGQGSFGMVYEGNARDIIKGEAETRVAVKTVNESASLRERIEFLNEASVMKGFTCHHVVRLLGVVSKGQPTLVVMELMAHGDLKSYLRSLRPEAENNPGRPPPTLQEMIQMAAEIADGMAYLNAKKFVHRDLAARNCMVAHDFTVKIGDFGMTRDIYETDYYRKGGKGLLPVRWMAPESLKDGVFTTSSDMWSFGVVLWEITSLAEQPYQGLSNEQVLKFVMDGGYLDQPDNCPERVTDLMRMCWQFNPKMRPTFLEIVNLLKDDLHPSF
Procedure, shortened: (§2)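 The AlphaScreen PT66 format of the NPM-ALK assay was applied with minor modifications to commercial recombinant His/GST-tagged kinase domains. Compound (0.078125–40 μM) was incubated 30 min at RT with 10 μM ATP and biotinylated poly-GT in Tris pH 7.5/MgCl2/MnCl2/DTT buffer, then beads 60 min. Read at 520–680 nm; IC50 and Ki derived.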

U937 = assay: Cellular IC50, U937; type: cell-based; settings: Homo sapiens, U-937; Table 3A
[3] = Liver microsome stability, Human LM-P1 / HLM; type: in vitro ADME; settings: for CLint scaled: Table 3A, human liver microsomes, read-out: CL HLM; for half-life / microsomal CLint: human, liver microsomes; for microsomal CLint: read-out: Human LM-P1 CL
From the text: Metabolic stability of compound (II) (labeled as CRL241 below) in vitro has been tested in a standard in vitro microsomal stability assay in human microsomes (Cerep Study 13170).

[4] = Liver microsome stability, Mouse LM-P1 / MLM; type: in vitro ADME; settings: for CLint scaled: Table 3A, mouse liver microsomes, read-out: CL MLM; for half-life / microsomal CLint: mouse, liver microsomes; for microsomal CLint: read-out: Mouse LM-P1 CL
ALK = ALK (Homo sapiens, UniProt Q9UM73); assay: ALK kinase assay (Kinase-Glo / AlphaScreen, purified NPM-ALK); type: biochemical; set-up: fused to the complete intracytoplasmic portion of ALK containing the functional tyrosine kinase domain; 6xHis; made in house; host or cells: insect cells; the other entry of the earlier key: NPM1 (P06748, Nucleophosmin);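 further: recombinant baculovirus-expressed ALK kinase domain, activity read either as leftover ATP by Kinase-Glo luminescence or as poly(Glu-Tyr) phosphorylation by anti-phosphotyrosine AlphaScreen proximity signal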
ALK, sequence (Q9UM73 with tags, fused parts or gaps): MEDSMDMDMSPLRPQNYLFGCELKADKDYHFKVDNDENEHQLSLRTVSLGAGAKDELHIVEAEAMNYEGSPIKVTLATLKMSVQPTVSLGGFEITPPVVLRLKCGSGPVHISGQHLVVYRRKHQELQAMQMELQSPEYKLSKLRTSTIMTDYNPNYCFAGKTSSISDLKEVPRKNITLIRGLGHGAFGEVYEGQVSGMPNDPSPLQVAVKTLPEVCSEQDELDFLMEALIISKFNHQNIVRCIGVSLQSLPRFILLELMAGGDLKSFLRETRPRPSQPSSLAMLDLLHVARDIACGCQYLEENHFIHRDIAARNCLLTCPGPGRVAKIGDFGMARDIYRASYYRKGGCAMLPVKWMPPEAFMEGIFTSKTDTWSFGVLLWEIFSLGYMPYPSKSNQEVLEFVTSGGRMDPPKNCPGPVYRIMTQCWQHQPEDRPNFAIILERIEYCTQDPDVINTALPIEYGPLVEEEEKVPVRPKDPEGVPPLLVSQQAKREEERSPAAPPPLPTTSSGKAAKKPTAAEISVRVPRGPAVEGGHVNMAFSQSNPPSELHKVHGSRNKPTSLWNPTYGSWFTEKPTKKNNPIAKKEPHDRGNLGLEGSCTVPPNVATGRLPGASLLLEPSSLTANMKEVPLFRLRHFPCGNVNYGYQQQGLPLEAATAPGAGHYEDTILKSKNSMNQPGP

RET = RET (Homo sapiens, UniProt P07949); assay: RET cell free kinase assay (Table 3A); type: biochemical
RET, sequence (P07949 29-1114): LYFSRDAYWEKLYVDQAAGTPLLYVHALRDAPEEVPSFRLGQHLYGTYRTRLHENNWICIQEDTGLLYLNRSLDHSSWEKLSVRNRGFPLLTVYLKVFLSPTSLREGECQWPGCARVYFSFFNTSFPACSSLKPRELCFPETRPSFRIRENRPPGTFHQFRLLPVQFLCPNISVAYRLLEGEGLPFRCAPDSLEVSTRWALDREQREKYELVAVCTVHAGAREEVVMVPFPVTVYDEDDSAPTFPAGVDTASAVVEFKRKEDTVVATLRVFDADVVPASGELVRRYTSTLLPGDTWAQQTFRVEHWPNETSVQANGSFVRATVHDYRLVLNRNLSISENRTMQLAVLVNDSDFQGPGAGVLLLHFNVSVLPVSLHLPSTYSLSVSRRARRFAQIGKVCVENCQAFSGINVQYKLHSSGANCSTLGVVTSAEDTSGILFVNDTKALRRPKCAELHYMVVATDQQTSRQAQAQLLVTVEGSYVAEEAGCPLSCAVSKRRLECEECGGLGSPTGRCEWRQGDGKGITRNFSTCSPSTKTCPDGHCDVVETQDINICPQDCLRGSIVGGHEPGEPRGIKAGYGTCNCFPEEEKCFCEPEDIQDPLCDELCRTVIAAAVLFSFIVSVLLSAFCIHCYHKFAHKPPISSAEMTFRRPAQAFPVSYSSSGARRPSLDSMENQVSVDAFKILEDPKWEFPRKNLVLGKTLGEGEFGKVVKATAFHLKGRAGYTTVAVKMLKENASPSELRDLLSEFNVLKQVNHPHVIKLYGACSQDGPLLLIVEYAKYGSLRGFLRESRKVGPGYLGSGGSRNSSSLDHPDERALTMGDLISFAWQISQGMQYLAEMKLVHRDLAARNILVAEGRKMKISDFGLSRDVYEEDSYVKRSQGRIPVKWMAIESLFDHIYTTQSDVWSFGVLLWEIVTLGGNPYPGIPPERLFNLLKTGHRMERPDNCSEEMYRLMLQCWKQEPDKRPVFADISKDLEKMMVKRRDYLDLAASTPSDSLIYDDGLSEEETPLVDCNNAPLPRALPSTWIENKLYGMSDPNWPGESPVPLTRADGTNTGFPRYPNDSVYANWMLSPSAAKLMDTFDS

SUDHL-1 = assay: Cellular IC50, SUDHL-1; type: cell-based; settings: Homo sapiens, SU-DHL-1; Table 3A
From the text: as §1

IGF1R = target: T2, IGF1R (Homo sapiens, UniProt P08069); assay: IGF1R kinase assay; type: biochemical; settings: Table 3A; read-out: Cell Free IC50 IGF1R
T2 construct: 6×His- or GST-tagged kinase domain fragments of the corresponding RTKs expressed in baculovirus system; host or cells: baculovirus system
T2 sequence (P08069 999-1274 limits assumed): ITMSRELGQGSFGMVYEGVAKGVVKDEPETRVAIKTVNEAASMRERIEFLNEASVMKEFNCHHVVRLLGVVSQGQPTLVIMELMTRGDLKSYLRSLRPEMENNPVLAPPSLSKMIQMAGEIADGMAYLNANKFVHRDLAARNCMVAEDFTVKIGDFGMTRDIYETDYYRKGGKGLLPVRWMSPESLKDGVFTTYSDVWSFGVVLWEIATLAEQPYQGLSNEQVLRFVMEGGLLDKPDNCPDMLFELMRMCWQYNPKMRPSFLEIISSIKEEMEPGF
Procedure, shortened: as §2

[5] = Liver microsome stability, Rat LM-P1; type: in vitro ADME; settings: liver microsomes; for microsomal CLint: read-out: Rat LM-P1 CL
IL-8 in A549 cells = assay: PMA-induced IL-8 levels in A549 cells, with or without RU-486; type: cell-based; settings: 4 hr treatments
A549 cells [6] = assay: TNFα-induced acute inflammation in A549 cells; type: cell-based; settings: 100 nM Dex or 1 μM compound (VI)
MMP-1 in A549 cells = assay: PMA induced MMP-1 production in A549 cells; type: cell-based; settings: one hour treatment
PC-12 cells = assay: PC-12 cell cytotoxicity; type: cell-based; settings: FIG. 13
FKBP51 (GR pathway) = assay: GR specific anti-inflammatory marker FKBP51 in A549 cells; type: cell-based
PC12 cells = assay: NGF-stimulated neurite outgrowth in PC12 cells; type: cell-based; settings: 100 nM compound, NGF 100 ng/ml, 6 days
Description: In chronic pain states, neurons form outgrowths which sensitize them to pain. NGF-induced neurite outgrowth was used as an assay for TrkA-dependent chronic/neuropathic pain activity.
Methods: PC12 cells were grown in 2% FBS and treated with or without NGF (100 ng/ml) 30 min before adding of vehicle or TRKA compounds for 6 days, changing media on day 3. On day 6 cells were fixed and stained for SRB before photographed for neurite outgrowth.

[7] = Aqueous Solubility (PBS, pH 7.4); type: physicochemical; settings: pH 7.4, 2.0E−04 M; for solubility: pH 7.4, PBS
[8] = Partition Coefficient (Log D, n-octanol/PBS, pH 7.4); type: physicochemical; settings: 1.0E−04 M; for logD: read-out: Partition Coefficient Log D, Weighed Average of Three Replicates
A549 cells [9] = assay: Prolonged inflammation (PMA induced MMP-1 or IL-8) in A549 cells; type: cell-based; settings: FIG. 17
From the text: Panel 3: All the above were done on the transcriptional level (i.e., MMP-1, IL-8, etc. expressions). For IL-8, this was verified on the translational (i.e., protein expression) level as well.

[10] = Table 8D, read-out: GTx-ALK IC50
[11] = Tables 9C, 9D, read-out: Solubility Mean
[12] = individual data, read-out: Solubility 1st/2nd

Compound: CC[C@]1(O)C[C@@H]2CN(CCc3c([nH]c4ccccc34)[C@@](C(=O)OC)(c3cc4c(cc3OC)N(C)[C@H]3[C@@](O)(C(=O)OC)[C@H](OC(C)=O)[C@]5(CC)C=CCN6CC[C@]43[C@@H]65)C2)C1 [vinblastin]
Present Recovery 1st ([1]; 1st replicate): 73% | Present Recovery 2nd ([1]; 2nd replicate): 57% | Mean Recovery ([1]; mean of n = 2): 65% | Mean Permeability [2]: 0.0 10^−6 cm/s | Permeability 1st [2]: 0.82 10^−6 cm/s | Permeability 2nd [2]: 0.02 10^−6 cm/s

Compound: Cc1ccc(F)cc1C[C@H](C)Nc1cc[nH]c(=O)c1-c1nc2cc3c(cc2[nH]1)C(=O)N(CCN1CCCC1)C3 [drawing 360]
IC50 (TRKA): 2 nM | IC50 (Karpas299): 81 nM | IC50 (IRK): 254 nM | IC50 (U937): > 3000 nM | CLint scaled [3]: < 5.8 mL/min/kg | CLint scaled [4]: 52.9 mL/min/kg | IC50 (ALK; Table 3A, read-out: Cell Free IC50 ALK): 2 nM

Compound: C[C@@H]1C[C@H]2[C@@H]3CCC4=CC(=O)C=C[C@]4(C)[C@@]3(F)[C@@H](O)C[C@]2(C)[C@@]1(O)C(=O)CO [dexamethasone, reference compound]
Effect of GR antagonist RU-486 on inhibition of PMA-induced IL-8 levels (IL-8 in A549 cells): reversible by GR antagonist RU-486 | TNFα-induced acute inflammation (A549 cells [6]): partially reversible | Inhibition of PMA induced MMP-1 production (MMP-1 in A549 cells): potently inhibit PMA induced MMP-1 production in the nM range

Compound: C[C@@H](Cc1c(F)c(F)cc(F)c1F)Nc1cc[nH]c(=O)c1-c1nc2cc3c(cc2[nH]1)CN(CCN1CCCC1)C3=O [compound (III)]
PC-12 cell cytotoxicity (PC-12 cells): lack of PC-12 cell cytotoxicity | Effect of GR antagonist RU-486 on inhibition of PMA-induced IL-8 levels (IL-8 in A549 cells): not affected or possibly were more potent | Activation of GR pathway (FKBP51 marker) (FKBP51 (GR pathway)): did not active the GR pathway | Concentration required for complete inhibition of PMA induced MMP-1 production (MMP-1 in A549 cells): ~1 µM | NGF-stimulated neurite outgrowth (PC12 cells): inhibited the neurite outgrowth

Compound: C[C@@H](Cc1cc(F)cc(F)c1F)Nc1cc[nH]c(=O)c1-c1nc2cc3c(cc2[nH]1)CN(CCN1CCCC1)C3=O [compound (VII)]
PC-12 cell cytotoxicity (PC-12 cells): lack of PC-12 cell cytotoxicity | NGF-stimulated neurite outgrowth (PC12 cells): inhibited the neurite outgrowth

Compound: Cc1ccc(F)cc1C[C@H](C)Nc1cc[nH]c(=O)c1-c1nc2cc3c(cc2[nH]1)C(=O)N(CCN1CCCC1)C3 [drawing 368]
half-life [5]: 8.71 min | microsomal CLint [5]: 79.6 µL/min/mg | half-life [3]: > 20 min | microsomal CLint [3]: < 5.8 µL/min/mg | half-life [4]: 13.1 min | microsomal CLint [4]: 52.9 µL/min/mg | IC50 (ALK; [10]): 2 nM

Compound: COC(=O)[C@@]1(O)C[C@H]2O[C@]1(C)n1c3ccccc3c3c4c(c5c6ccccc6n2c5c31)C(=O)NC4 [K252a, reference compound]
Anti-inflammatory effect on prolonged inflammation (PMA induced MMP-1 or IL-8) (A549 cells [9]): demonstrated anti-inflammatory activity which was not reversible by GR antagonist

Compound: CC/C(=C(/CC)c1ccc(O)cc1)c1ccc(O)cc1 [Diethylstilbestrol]
Solubility 1st/2nd ([7]; individual data): 8.59 μm | solubility [7, 11]: 8.6 µM (≈ 2.31 µg/mL) | solubility [7, 12]: 8.6 µM (≈ 2.31 µg/mL) | logD [8]: > 5

Now from value to compound:

IC50 (RET): 4 nM | IC50 (U937): > 3000 nM | CLint scaled [3]: < 5.8 mL/min/kg | CLint scaled [4]: 82.2 mL/min/kg | IC50 (SUDHL-1): 102 nM
Compound: C[C@@H](Cc1c(F)c(F)cc(F)c1F)Nc1cc[nH]c(=O)c1-c1nc2cc3c(cc2[nH]1)CN(CCN(C)C)C3=O

IC50 (TRKA): 3 nM | IC50 (Karpas299): 155 nM | IC50 (IRK): 526 nM | IC50 (U937): > 3000 nM | CLint scaled [3]: < 5.8 mL/min/kg | CLint scaled [4]: 46 mL/min/kg | IC50 (IGF1R): 455 nM | IC50 (SUDHL-1): 30 nM
Compound: Cc1ccc(F)cc1C[C@H](C)Nc1cc[nH]c(=O)c1-c1nc2cc3c(cc2[nH]1)CN(CCN(C)C)C3=O [drawing 361]

half-life [5]: 4.36 min | microsomal CLint [5]: 159 µL/min/mg | half-life [3]: > 120 min | microsomal CLint [3]: < 5.8 µL/min/mg | half-life [4]: 29 min | microsomal CLint [4]: 23.9 µL/min/mg | IC50 (ALK; [10]): 3 nM
Compound: C[C@@H](Cc1c(F)c(F)cc(F)c1F)Nc1cc[nH]c(=O)c1-c1nc2cc3c(cc2[nH]1)CN(CCN1CCCC1)C3=O [drawing 370]

Solubility 1st/2nd ([7]; individual data): 188.93 μm | solubility [7, 11]: 190 µM | solubility [7, 12]: 190 µM | logD [8]: -0.46
Compound: COCCc1ccc(OCC(O)CNC(C)C)cc1 (centres unmarked) [Metoprolol tartrate]

Solubility 1st/2nd ([7]; individual data): 186.51 μm | solubility [7, 11]: 184 µM (≈ 151 µg/mL) | solubility [7, 12]: 181 µM (≈ 149 µg/mL) | logD [8]: 1.23
Compound: CO[C@H]1/C=C/O[C@@]2(C)Oc3c(C)c(O)c4c(O)c(c(/C=N/N5CCN(C)CC5)c(O)c4c3C2=O)NC(=O)/C(C)=C\C=C\[C@H](C)[C@H](O)[C@@H](C)[C@@H](O)[C@@H](C)[C@H](OC(C)=O)[C@@H]1C [Rifampicin]

Partition Coefficient Log D, Weighed Average of Three Replicates [8]: 2.34
Compound: O=C1NC(=O)C(c2ccccc2)(c2ccccc2)N1 [Phenytion]

half-life [5]: 5 min | microsomal CLint [5]: 138 µL/min/mg | half-life [3]: > 120 min | microsomal CLint [3]: < 5.8 µL/min/mg | half-life [4]: 22.1 min | microsomal CLint [4]: 31.4 µL/min/mg | IC50 (ALK; [10]): 5 nM
Compound: C[C@@H](Cc1cc(F)cc(F)c1F)Nc1cc[nH]c(=O)c1-c1nc2cc3c(cc2[nH]1)CN(CCN1CCCC1)C3=O [drawing 369]
